Assay type in all cases: cell-based
The subject of test [1] is production of IL-6 by dendritic cells derived from monocytes. Description: Inhibition of IL-6 production by monocyte-derived dendritic cells stimulated with C. acnes membranes. The settings on record: Homo sapiens, Dendritic cell; C. acnes phylotype IA1 membranes, 24 hours stimulation; dexamethasone 300 ng/ml, myrtle extract 10 μg/ml, Trip extract 25 μg/ml, combination 10 and 25 μg/ml; mean of 3 experiments. On the procedure: (§1) The experiments were performed on co-cultures of immature dendritic cells derived from monocytes, at a final concentration of 1.10^5 cells/ml/well and biofilms or membranes of C. acnes of phylotype IA1 . The monocytes are purified from human blood by negative selection (The EasySep™ Human Monocyte Enrichment Kit, StemCell).
(§2) On Day 0, the monocytes are incubated in a differentiation medium (Gibco Roswell Park Memorial Institute (RPMI), 10% v/v foetal bovine serum (FBS) that has been decomplemented (heated to 56° C. for 30 minutes), 50 ng/ml IL-4 and 100 ng/ml Recombinant Human Granulocyte Macrophage Colony-Stimulating Factor (GM-CSF)). On the 3rd day of culture, half of the medium is replaced by fresh medium. On day 6, the immature dendritic cells are characterised by flow cytometry and stimulated by a biofilm or membranes of C. acnes.
(§3) The membranes of C. acnes are purchased from the Icare laboratory (Saint-Beauzire, France).
(§4) The stimulation of the immature dendritic cells derived from monocytes by the membranes of C. acnes is carried out with a dilution to 1/20 of a solution of membranes in the culture medium (RPMI+10% v/v FBS) at a concentration of 0.15 mg/ml.
(§5) The myrtle extract used in this study is prepared according to example 1. This extract is solubilised and stored at […] in ethanol (10 mg of dry extract prepared according to example 1, in 1 ml of ethanol). […]

Test [2] relates to production of IL-8 by dendritic cells derived from monocytes. Description: Inhibition of IL-8 production by monocyte-derived dendritic cells stimulated with C. acnes membranes. As to conditions: Homo sapiens, Dendritic cell; C. acnes phylotype IA1 membranes, 24 hours stimulation; dexamethasone 300 ng/ml, myrtle extract 10 μg/ml, Trip extract 25 μg/ml, combination 10 and 25 μg/ml; mean of 3 experiments. The procedure:
as §1, §2, §3
The stimulation of the immature dendritic cells derived from monocytes by the membranes of C. acnes is carried out with a dilution to 1/20 of a solution of membranes in the culture medium (RPMI+10% v/v FBS) at a concentration of 0.15 mg/ml. […]
Several cytokines are evaluated in this study. IL-6, IL-8, IL-10, and IL-12p40; these cytokines are quantified in multiplex using the Luminex technology (Bioplex 200, Biorad).

The subject of test [3] is production of IL-10 by dendritic cells derived from monocytes. Description: Inhibition of IL-10 production by monocyte-derived dendritic cells stimulated with C. acnes membranes. As to conditions: Homo sapiens, Dendritic cell; C. acnes phylotype IA1 membranes, 24 hours stimulation; dexamethasone 300 ng/ml, myrtle extract 10 μg/ml, Trip extract 25 μg/ml, combination 10 and 25 μg/ml; mean of 3 experiments. The procedure:
as §1, §2, §3, §4, §5

The subject of test [4] is production of IL-12p40 by dendritic cells derived from monocytes. Description: Inhibition of IL-12p40 production by monocyte-derived dendritic cells stimulated with C. acnes membranes. The settings on record: Homo sapiens, Dendritic cell; C. acnes phylotype IA1 membranes, 24 hours stimulation; dexamethasone 300 ng/ml, myrtle extract 10 μg/ml, Trip extract 25 μg/ml, combination 10 and 25 μg/ml; mean of 3 experiments. The procedure: as §1, §2, §3, §4, §5

Test [5] relates to production of IL-10 by dendritic cells derived from monocytes. Description: Inhibition of IL-10 production by monocyte-derived dendritic cells stimulated with biofilm of C. acnes. As to conditions: Homo sapiens, Dendritic cell; biofilm of C. acnes phylotype IA1, MOI close to 100, 24 hours stimulation; dexamethasone 300 ng/ml, combination 10 and 25 μg/ml; mean of 3 experiments. The procedure:
as §1, §2
The myrtle extract used in this study is prepared according to example 1. This extract is solubilised and stored at […] in ethanol (10 mg of dry extract prepared according to example 1, in 1 ml of ethanol). The concentration tested is 10 μg/ml.
The extract of Tripterygium wilfordii (Trip extract below) used in this study is prepared according to example 2.

The term inhibition denotes the relative decrease from the control value, in per cent. For `C[C@@H]1C[C@H]2[C@@H]3CCC4=CC(=O)C=C[C@]4(C)[C@@]3(F)[C@@H](O)C[C@]2(C)[C@@]1(O)C(=O)CO` [Dexamethasone, dexamethasone], the inhibition at 0.3 µg/mL in test [1] came to 76.8%; in test [2] it was 47.6%; in test [3], 41.7%; in test [4] it was 79.5%; in test [5], 38.6%.

Values taken from patent US20240165185A1, “COMBINATION OF A MYRTLE EXTRACT AND A TRIPTERYGIUM WILFORDII EXTRACT FOR COMBATING C. ACNES-INDUCED INFLAMMATION” (priority 2021, published 2024).
